In patent US11524938B2, “Aromatic sulfonamide derivatives” (Bayer Pharma Aktiengesellschaft, priority 2016, dated 2022):
“And” between values parts separate entries of the source, which are not always exact repeats. Equal entries are not always repeated.

Target: T1, human P2X4 (Homo sapiens, UniProt Q99571)
T1 sequence (Q99571 1-388): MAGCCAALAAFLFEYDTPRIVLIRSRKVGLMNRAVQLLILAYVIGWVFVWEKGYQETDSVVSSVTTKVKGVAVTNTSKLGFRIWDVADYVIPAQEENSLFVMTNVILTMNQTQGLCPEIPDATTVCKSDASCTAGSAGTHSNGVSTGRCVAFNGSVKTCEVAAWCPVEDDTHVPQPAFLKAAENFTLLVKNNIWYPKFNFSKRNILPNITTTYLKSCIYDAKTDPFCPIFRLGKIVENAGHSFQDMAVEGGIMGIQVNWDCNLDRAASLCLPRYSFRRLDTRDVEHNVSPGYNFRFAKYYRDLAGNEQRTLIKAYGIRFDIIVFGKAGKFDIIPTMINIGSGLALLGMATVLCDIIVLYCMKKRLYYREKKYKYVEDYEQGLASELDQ
Assay: Human P2X4 HEK Cell FLIPR Assay
Type: cell-based
Details: agonist Bz-ATP at EC80; for Emax: HEK293, HEK293 cells, percentage of maximal inhibition, read-out: Human P2X4 HEK Cells (FLIPR Assay) avg Efficacy [%]; for IC50: HEK293 cells, individual values listed where some fall outside detection range
Summary of the method: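 HEK293 cells stably expressing human P2X4, Fluo8-AM loaded 30 min at 37° C, then compound 30 min at room temperature (0.5% DMSO, pH 7.4 buffer with 1.8 mM CaCl2). Bz-ATP at its daily-determined EC80 added; calcium fluorescence read over 120 sec; IC50 from peak RFU normalized to agonist control, triplicates.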

Row | Emax | IC50 | Structure (SMILES)
1 | 86% | 125 nM | NS(=O)(=O)c1cc(NC(=O)Cc2ccccc2Cl)ccc1-c1cc[nH]c1 [Example 527, 2-(2-Chlorophenyl)-N-[4-(1H-pyrrol-3-yl)-3-sulfamoylphenyl]acetamide]
2 | 95% | 42 nM | NS(=O)(=O)c1cc(NC(=O)Cc2ccccc2Cl)ccc1-c1c[nH]c(C(=O)C(F)F)c1 [Example 528, 2-(2-Chlorophenyl)-N-{4-[5-(difluoroacetyl)-1H-pyrrol-3-yl]-3-sulfamoylphenyl}acetamide]
3 | 92% | 72 nM | Cn1ccc(-c2ccc(NC(=O)Cc3ccccc3Cl)cc2S(N)(=O)=O)c1 [Example 529, 2-(2-Chlorophenyl)-N-[4-(1-methyl-1H-pyrrol-3-yl)-3-sulfamoylphenyl]acetamide]
4 | 112% | 33 nM | Cn1c(C#N)ccc1-c1ccc(NC(=O)Cc2ccccc2Cl)cc1S(N)(=O)=O [Example 530, 2-(2-Chlorophenyl)-N-[4-(5-cyano-1-methyl-1H-pyrrol-2-yl)-3-sulfamoylphenyl]acetamide]
5 | 60% | 11500 nM and 12900 nM and 17000 nM | NS(=O)(=O)c1cc(NC(=O)Cc2ccccc2Cl)c(C(F)(F)F)cc1-n1cc(C(F)(F)F)cn1 [Example 532, 2-(2-Chlorophenyl)-N-{5-sulfamoyl-2-(trifluoromethyl)-4-[4-(trifluoromethyl)-1H-pyrazol-1-yl]phenyl}acetamide]
6 | 97% | 20 nM | Cc1cn(-c2ccc(NC(=O)Cc3ccccc3Cl)cc2S(N)(=O)=O)nc1C [Example 542, 2-(2-Chlorophenyl)-N-[4-(3,4-dimethyl-1H-pyrazol-1-yl)-3-sulfamoylphenyl]acetamide]
7 | 85% | 1 nM | NS(=O)(=O)c1cc(NC(=O)Cc2ccccc2Cl)ccc1-n1cccn1 [Example 544, 2-(2-Chlorophenyl)-N-[4-(1H-pyrazol-1-yl)-3-sulfamoylphenyl]acetamide]
8 | 100% | 19 nM | Cc1cc(C#N)nn1-c1ccc(NC(=O)Cc2ccccc2Cl)cc1S(N)(=O)=O [Example 545, 2-(2-Chlorophenyl)-N-[4-(3-cyano-5-methyl-1H-pyrazol-1-yl)-3-sulfamoylphenyl]acetamide]
9 | 94% | 60 nM | Cc1c(C#N)cnn1-c1ccc(NC(=O)Cc2ccccc2Cl)cc1S(N)(=O)=O [Example 547, 2-(2-Chlorophenyl)-N-[4-(4-cyano-5-methyl-1H-pyrazol-1-yl)-3-sulfamoylphenyl]acetamide]
10 | 87% | 1 nM | NS(=O)(=O)c1cc(NC(=O)Cc2ccccc2Cl)ccc1-c1ncc(N2CCOCC2)s1 [Example 550, 2-(2-Chlorophenyl)-N-{4-[5-(morpholin-4-yl)-1,3-thiazol-2-yl]-3-sulfamoylphenyl}acetamide]

Further lines, the molecule ahead of its results:

Row | Structure (SMILES) | Emax | IC50
11 | NS(=O)(=O)c1c(-n2cc(C(F)(F)F)cn2)ccc(NC(=O)Cc2ccccc2Cl)c1C(F)(F)F [Example 531, 2-(2-Chlorophenyl)-N-{3-sulfamoyl-2-(trifluoromethyl)-4-[4-(trifluoromethyl)-1H-pyrazol-1-yl]phenyl}acetamide] | 84% | 2320 nM
12 | NS(=O)(=O)c1cc(NC(=O)Cc2cccc(C(F)(F)F)c2Cl)c(C(F)(F)F)cc1-n1cc(C(F)(F)F)cn1 [Example 533, 2-[2-Chloro-3-(trifluoromethyl)phenyl]-N-{5-sulfamoyl-2-(trifluoromethyl)-4-[4-(trifluoromethyl)-1H-pyrazol-1-yl]phenyl}acetamide] | 26% | > 25000 nM
13 | NS(=O)(=O)c1cc(NC(=O)Cc2cc(C(F)(F)F)ccc2Cl)c(C(F)(F)F)cc1-n1cc(C(F)(F)F)cn1 [Example 534, 2-[2-Chloro-5-(trifluoromethyl)phenyl]-N-{5-sulfamoyl-2-(trifluoromethyl)-4-[4-(trifluoromethyl)-1H-pyrazol-1-yl]phenyl}acetamide] | 17% | > 25000 nM
14 | NS(=O)(=O)c1cc(NC(=O)Cc2c(Cl)cccc2C(F)(F)F)c(C(F)(F)F)cc1-n1cc(F)cn1 [Example 535, 2-[2-Chloro-6-(trifluoromethyl)phenyl]-N-[4-(4-fluoro-1H-pyrazol-1-yl)-5-sulfamoyl-2-(trifluoromethyl)phenyl]acetamide] | 91% | 3840 nM
15 | NS(=O)(=O)c1cc(NC(=O)Cc2cccc(C(F)(F)F)c2Cl)c(C(F)(F)F)cc1-n1cc(F)cn1 [Example 536, 2-[2-Chloro-3-(trifluoromethyl)phenyl]-N-[4-(4-fluoro-1H-pyrazol-1-yl)-5-sulfamoyl-2-(trifluoromethyl)phenyl]acetamide] | 67% | 12400 nM and 16800 nM
16 | NS(=O)(=O)c1cc(NC(=O)Cc2cc(C(F)(F)F)ccc2Cl)c(C(F)(F)F)cc1-n1cc(F)cn1 [Example 537, 2-[2-Chloro-5-(trifluoromethyl)phenyl]-N-[4-(4-fluoro-1H-pyrazol-1-yl)-5-sulfamoyl-2-(trifluoromethyl)phenyl]acetamide] | 95% | 3620 nM
17 | NS(=O)(=O)c1cc(NC(=O)Cc2ccc(C(F)(F)F)cc2Cl)c(C(F)(F)F)cc1-n1cc(F)cn1 [Example 538, 2-[2-Chloro-4-(trifluoromethyl)phenyl]-N-[4-(4-fluoro-1H-pyrazol-1-yl)-5-sulfamoyl-2-(trifluoromethyl)phenyl]acetamide] | 83% | 3910 nM
18 | CC(C)(C)c1nn(-c2ccc(NC(=O)Cc3ccccc3Cl)cc2S(N)(=O)=O)cc1C#N [Example 539, N-[4-(3-tert-Butyl-4-cyano-1H-pyrazol-1-yl)-3-sulfamoylphenyl]-2-(2-chlorophenyl)acetamide] | 103% | 127 nM
19 | N#Cc1cn(-c2ccc(NC(=O)Cc3ccccc3Cl)cc2S(N)(=O)=O)nc1Br [Example 540, N-[4-(3-Bromo-4-cyano-1H-pyrazol-1-yl)-3-sulfamoylphenyl]-2-(2-chlorophenyl)acetamide] | 79% | 1 nM
20 | NS(=O)(=O)c1cc(NC(=O)Cc2ccccc2Cl)ccc1-n1cc(Cl)c(C(F)(F)F)n1 [Example 541, 2-(2-Chlorophenyl)-N-{4-[4-chloro-3-(trifluoromethyl)-1H-pyrazol-1-yl]-3-sulfamoylphenyl}acetamide] | 50% | > 25000 nM
21 | Cc1nn(-c2ccc(NC(=O)Cc3ccccc3Cl)cc2S(N)(=O)=O)c(C)c1Cl [Example 543, N-[4-(4-Chloro-3,5-dimethyl-1H-pyrazol-1-yl)-3-sulfamoylphenyl]-2-(2-chlorophenyl)acetamide] | 98% | 267 nM
22 | Cc1cc(O)nn1-c1ccc(NC(=O)Cc2ccccc2Cl)cc1S(N)(=O)=O [Example 546, 2-(2-Chlorophenyl)-N-[4-(3-hydroxy-5-methyl-1H-pyrazol-1-yl)-3-sulfamoylphenyl]acetamide] | 75% | 97 nM
23 | Cc1nn(-c2ccc(NC(=O)Cc3ccccc3Cl)cc2S(N)(=O)=O)cc1C#N [Example 548, 2-(2-Chlorophenyl)-N-[4-(4-cyano-3-methyl-1H-pyrazol-1-yl)-3-sulfamoylphenyl]acetamide] | 94% | 5 nM
24 | NS(=O)(=O)c1cc(NC(=O)Cc2ccccc2Cl)ccc1-c1nc(N2CCOCC2)cs1 [Example 549, 2-(2-Chlorophenyl)-N-{4-[4-(morpholin-4-yl)-1,3-thiazol-2-yl]-3-sulfamoylphenyl}acetamide] | 85% | 8 nM
